Data on three compounds can be found in patent US20240269138A1, “MMP13 AS A THERAPEUTIC TARGET FOR ALLERGIC INFLAMMATORY DISEASES” (The General Hospital Corporation, priority 2021, published 2024).

Test [1] deals with OVA-induced allergic dermatitis. The test can be described thus: OVA-induced allergic dermatitis (mouse model of atopic dermatitis), topical inhibitor. Conditions: for inflammation in a mouse model of atopic dermatitis (overall): topical administration; for OVA-induced dermal thickening (edema formation) / OVA-induced epidermal thickening / OVA-induced T cell infiltration (CD3+ T cell density) / OVA-induced eosinophil infiltration (MBP+ eosinophil density): topical, 125 μl of 50 mM solution per cm^2 concurrently with OVA challenge, skin on day 21; for OVA-induced dermal thickening (edema formation) / OVA-induced epidermal thickening: H&E; for OVA-induced T cell infiltration (CD3+ T cell density) / OVA-induced eosinophil infiltration (MBP+ eosinophil density): immunostaining. Type of test: in vivo, C57BL/6 mice. On the procedure:
C57BL/6 mice were sensitized to OVA and challenged with control SAL or OVA as in FIGS. 1A-1G. Vehicle (water), the p38α inhibitor SCIO469 (p38αi), and the MMP13 inhibitor DB04760 (CAS 544678-85-5; MMP13i) were administered topically to the challenged skin site (125 μl of 50 mM solution per cm^2; n=10 per group) concurrently with SAL or OVA. SAL- and OVA-challenged skin was prepared for analysis as in FIGS. 1A-1G. (FIGS. 4A-4C) Skin sections were analyzed by H&E staining (FIG. 4A). Epidermal and dermal thickness (FIG. 4B and FIG. 4C, respectively) was determined from H&E-stained skin images and are shown as means±SEM. *, P<0.05; **, P<0.01 (two-tailed unpaired Student's t test). (FIGS. 4D-4G) Skin sections were analyzed by immunostaining/counterstaining for the indicated molecules (FIG. 4D and FIG. 4F). Solid and dotted line, epidermal margins and the epidermal-dermal boundary, respectively. CD3^+ T cell and MBP^+ eosinophil density (FIG. 4E and FIG. 4G, respectively) was determined on the basis of fluorescence signal-bearing cell numbers per image field and is shown as means SEM. **, P<0.01; ***, P<0.001 (two-tailed unpaired Student's t test). For allergen sensitization, OVA (Sigma) and alum adjuvant (Imject; Thermo Fisher Scientific) were combined in saline (0.9% sodium chloride; SAL) to constitute an inoculum (1 mg/ml and 100 mg/ml, respectively) and injected intraperitoneally into mice (200 μl per animal) on day 0 and 7. To elicit dermatitis in OVA-sensitized mice, shaved dorsal skin was subjected to 15 strokes of tape stripping (Tegaderm; 3M) and then challenged with OVA on days 14, 16 and 19. For this epicutaneous challenge, 100 μl of OVA (1 mg/ml in SAL) was applied to cotton gauze (1 cm×1 cm) placed on tape-stripped skin; 100 μl of SAL was applied as a control. For topical administration of p38α and MMP13 inhibitors, 125 μl of inhibitor solution (50 mM) was applied to skin sites concurrently with SAL or OVA. Challenged skin was sampled on day 21 for analysis. Mouse skin and lung tissues were fixed with formalin and embedded in paraffin. Tissue sections were analyzed by hematoxylin and eosin (H&E) and Periodic acid-Schiff (PAS) staining or by immunofluorescence analysis using primary antibodies in conjunction with Alexa Fluor 594- or fluorescein isothiocyanate-conjugated secondary antibodies (Thermo Fisher Scientific) and Hoechst 33342 (Sigma). Primary antibodies specific to the following antigens were used in immunofluorescence analysis after 1:100 to 1:200 dilution: CD3 (SP7; Abcam), MBP (2000-124; Mayo Clinic), and MMP13 (ab39012; Abcam). Cytospins of BAL cells were analyzed by Diff-Quik staining. Data values are expressed as means±SEM. P values were obtained with the unpaired two-tailed Student t test with Welch's correction.

The test system of test [2] is HDM-induced allergic airway inflammation. The test can be described thus: HDM-induced allergic airway inflammation (mouse model of asthma), intraperitoneal inhibitor. Type of test: in vivo, C57BL/6 mice. The following applies: for total BAL leukocyte numbers / histologically detectable changes in the lung tissue sections: 50 mg/kg intraperitoneally on days 19 and 20; for total BAL leukocyte numbers: BAL on day 21, Diff-Quik; for histologically detectable changes in the lung tissue sections: lungs on day 21, H&E and PAS; for effectiveness compared with dexamethasone: inhibitor 50 mg/kg vs dexamethasone 1 mg/kg, intraperitoneally, days 19 and 20; for inflammation in a mouse model of asthma (overall): systemic (intraperitoneal) administration. The procedure:
C57BL/6 mice were subjected to intranasal instillation of control PBS or HDM as in FIGS. 5A-5D. Vehicle (DMSO), dexamethasone (1 mg/kg), and the MMP13 inhibitors CL82198 (MMP13i Inh1; 50 mg/kg) and DB04760 (CAS 544678-85-5; MMP13i Inh2; 50 mg/kg) were administered intraperitoneally (n=3, 3, 4, and 2 per group, respectively) on days 19 and 20. BAL and lungs of PBS- and HDM-challenged mice were prepared for analysis as in FIGS. 5A-5D. (FIG. 6A and FIG. 6B) BAL cells were analyzed by Diff-Quik staining (FIG. 6A). The numbers of total BAL cells and the indicated types of BAL cells were determined from Diff-Quik-stained cell images and are shown as means±SEM (FIG. 6B). *, P<0.05 (two-tailed unpaired Student's t test). (FIG. 6C and FIG. 6D) Lung sections were analyzed by H&E staining (FIG. 6C) and PAS staining (FIG. 6D). Mice were subjected to intranasal instillation of HDM (D. farinae) extract (XPB81D3A25; Stallergenes Greer) in phosphate-buffered saline (PBS) on days 0, 2, 5, 7, 9, 12, 14, 16 and 19. The amounts of HDM extract administered range between 1 μg and 10 μg per animal; the administered amount for each batch was determined by seeking a condition for BAL eosinophils of 2-5×10^5 cells. PBS was instilled as a control. Dexamethasone and MMP13 inhibitors were injected intraperitoneally (1 mg/kg and 50 mg/kg, respectively) on days 19 and 20. BAL and lungs of PBS- and HDM-challenged mice were prepared on day 21 for analysis. Mouse skin and lung tissues were fixed with formalin and embedded in paraffin. Tissue sections were analyzed by hematoxylin and eosin (H&E) and Periodic acid-Schiff (PAS) staining or by immunofluorescence analysis using primary antibodies in conjunction with Alexa Fluor 594- or fluorescein isothiocyanate-conjugated secondary antibodies (Thermo Fisher Scientific) and Hoechst 33342 (Sigma). Primary antibodies specific to the following antigens were used in immunofluorescence analysis after 1:100 to 1:200 dilution: CD3 (SP7; Abcam), MBP (2000-124; Mayo Clinic), and MMP13 (ab39012; Abcam). Cytospins of BAL cells were analyzed by Diff-Quik staining. Data values are expressed as means±SEM. P values were obtained with the unpaired two-tailed Student t test with Welch's correction.

The target of test [3] is MMP13 (Homo sapiens, UniProt P45452). The following applies: fill the S1′ pocket of MMP13 but cannot fit those of other MMPs; cited from earlier work.

With `C[C@@H]1CN(Cc2ccc(F)cc2)[C@@H](C)CN1C(=O)c1cc2c(C(=O)C(=O)N(C)C)cn(C)c2cc1Cl` [SCIO469], in test [1], the “inflammation in a mouse model of atopic dermatitis (overall)” value is given as “suppresses inflammation”, the “OVA-induced dermal thickening (edema formation)” value is recorded as “significant decrease”, the OVA-induced epidermal thickening result is recorded as “significant decrease” and the “OVA-induced T cell infiltration (CD3+ T cell density)” value is recorded as “significant decrease”. For the same compound, in test [1], the “OVA-induced eosinophil infiltration (MBP+ eosinophil density)” value is “significant decrease”.

Consider `Cc1cc(CNC(=O)c2cc(C(=O)NCc3ccc(F)c(C)c3)ncn2)ccc1F` [DB04760], for which, in test [1], the “inflammation in a mouse model of atopic dermatitis (overall)” value is reported as “suppresses inflammation”, the “OVA-induced dermal thickening (edema formation)” value is listed as “trend of decrease”, the OVA-induced epidermal thickening entry was “significantly reduced” and the “OVA-induced T cell infiltration (CD3+ T cell density)” value is given as “significantly reduced”. In addition, the “OVA-induced eosinophil infiltration (MBP+ eosinophil density)” value in test [1] is given as “trend of decrease”. In test [2], the “total BAL leukocyte numbers” value is on record as “substantially reduced”, the “histologically detectable changes in the lung tissue sections” value is reported as “prevented”, the “effectiveness compared with dexamethasone” value is listed as “superior to that of dexamethasone” and the “inflammation in a mouse model of asthma (overall)” value is recorded as “suppresses inflammation”.

Regarding `O=C(NCCCCN1CCOCC1)c1cc2ccccc2o1` [CL82198], in test [2], the “total BAL leukocyte numbers” value is listed as “substantially reduced”, the “histologically detectable changes in the lung tissue sections” value is reported as “prevented”, the “effectiveness compared with dexamethasone” value is given as “superior to that of dexamethasone” and the “inflammation in a mouse model of asthma (overall)” value is listed as “suppresses inflammation”. The “selectivity for MMP13 over other MMPs” value in test [3] is “almost exclusively selective for MMP13”.
